Paper PMC7801313, “Effect of lurbinectedin on the QTc interval in patients with advanced solid tumors: an exposure–response analysis” (Cancer Chemotherapy and Pharmacology, 2020)
Values after ≈ are worked out from the molar mass of the structure shown.

Experiments:
[1] = system: patients; experiment: clinical toxicity of lurbinectedin as a single agent; assay type: in vivo, human; conditions: to date
[2] = system: patients with advanced solid tumors; experiment: concentration-ΔQTcF linear mixed-effects modelling; assay type: in vivo, human
Procedure: C–ΔQTcF was assessed using a linear mixed-effects (LME) model, as proposed by Garnett et al.. As the data available came from a single arm study, the LME model was characterized by the intercept ( θ1 ) and the slope ( θ2 ), and their corresponding variabilities.1 ΔQTcFij=θ1·e^η1,i+θ2·e^η2,i·Cij+θ3·Cycle+ϵij, where Cij is the model-predicted lurbinectedin total plasma concentrations (or the lurbinectedin concentrations in the effect compartment if a hysteresis is present), and η1,i and η2,i are the random effects associated with the intercept term θ1 and the slope term θ2 , respectively, and are assumed to be exponential, independent, and normally distributed. Furthermore, ϵij is the random residual variability, assumed to be an additive, independent, and normally distributed random variable. In the absence of placebo data, the unstructured placebo model consisting on the fixed effect parameters accounting for treatment-specific intercept (TRT), mean ΔQTcF at each time point evaluated (TIME), and baseline QTc was not included in the model. Based on the fact that ECG and PK assessments in this study were performed on two occasions (cycle 1 and cycle 2), the effect of cycle θ3 was also assessed in the models. To select the model for the C-ΔQTcF analysis (i.e., direct or indirect), a potential delay of the ΔQTcF effect relative to plasma concentrations (hysteresis) was graphically and statistically assessed, as proposed by Darpo et al.. To enable an adequate comparison of the model fit between the direct effect model and the effect compartment model, the model-based predicted total plasma concentrations at central compartment (“direct” model) and at the effect compartment (“indirect” model) were used. These were based on the individual PK parameters, obtained through a maximum a posteriori estimation based on the individual total plasma concentration available for each subject and a population PK model previously developed.
The assumption of linearity of the C–ΔQTcF relationship was assessed by goodness-of-fit plots. Besides, a model with an empirical quadratic term of total plasma concentration was fitted and the significance of the quadratic term was tested. In case of the absence of trends in the goodness-of-fit plots and a non-significant quadratic term, the C–∆QTcF relationship was considered linear; otherwise, the relationship was considered non-linear.
The predicted effect of lurbinectedin on ΔQTcF was estimated at the Cmax geometric mean either at the central or at the effect compartment in the first two cycles following the administration of 3.2 mg/m^2 i.v. over 1-h q3wk and was calculated as the estimated intercept ( θ1,Est ) plus the product of the estimated slope ( θ2,Est ) and geometric mean Cmax ( C ):2 EstimatedMeanΔQTcFC=θ1,Est+C×θ2,Est.
Two-sided 90% confidence intervals (CIs) of the estimated ΔQTcF were computed from Eqs. 3 and 4:3 EstimatedSE=varθ1,Est+C^2varθ2,Est+2Ccovθ1,Estθ2,Est 4 90%CI=EstimatedMeanΔQTcC±t0.95,DF×EstimatedSE, where varθ1,Est is the variance of the intercept, varθ2,Est is the variance of the slope, and covθ1,Estθ2,Est is the covariance of intercept and slope; t is the critical value determined from the t-distribution; DF is the degrees of freedom; SE is the standard error; and CI is the confidence interval.
To exclude a prolongation of QT for lurbinectedin assuming that there is no placebo effect, the upper bound (UB) of the 2-sided 90% CI of the model-predicted mean ΔQTcF had to be lower than 10 ms (threshold set at the ICH E14 Q&A R3 [11]), at the Cmax geometric mean obtained after administration of the clinically relevant dose of 3.2 mg/m^2 i.v. over 1-h q3wk.
The Cmax geometric mean either at the central or at the effect compartment, at which UB 90% CI of the model-predicted mean ΔQTcF would be above 10 ms and 20 ms thresholds, was also estimated according to the formulas provided above.

[3] = system: hERG; set-up: method as in data on file; conditions: ref data on file; cited from earlier work
[4] = system: cynomolgus monkeys; set-up: method as in data on file; conditions: single i.v. bolus at maximum tolerated dose, ref data on file; cited from earlier work
[5] = lurbinectedin plasma pharmacokinetics in the QT evaluation study; assay type: in vivo, human
Procedure: In cycle 1 and cycle 2, the following triplicate ECGs were collected 5–10 min before their time-matched PK time points: 5 min before end of the lurbinectedin infusion (EOI), 30 min, 1, 3, 24, 72 (only on cycle 1), and 168 h after EOI.
Pharmacokinetic (PK) profiles of lurbinectedin were obtained on cycle 1 and cycle 2. Following ECGs’ acquisition, blood samples were collected into K3EDTA tubes. Tubes were gently inverted several times and centrifuged at 2000 × g for 10 min at 4 °C to separate the plasma.
Plasma concentrations of lurbinectedin were measured by a validated liquid chromatography–mass spectrometry assay (Dynakin S.L., Spain), with ranges of 0.1–50 µg/L. The within- and between-day precisions ranged from 2.7 to 12.9% and from 5.1 to 10.7%, respectively. The within- and between-day accuracy (bias) ranged from 10 to 12% and from 5 to 6%, respectively.
Datasets were prepared using SAS Enterprise Guide v.7.11 HF3 (SAS Institute Inc., Cary, NC, USA). Non-compartmental PK parameters were determined using Phoenix WinNonlin v.6.3 (Certara, USA). Non-linear mixed-effect modelling was performed in NONMEM v.7.3.0 (GloboMax LLC, Hanover, MD, USA). Graphical and all other statistical analyses were performed in R v.3.2.5 (R Foundation for Statistical Computing, Vienna, Austria).

[6] = system: oncogenic transcription; set-up: method as in PMID 20977459; conditions: cited from earlier work

COc1ccc2[nH]c3c(c2c1)CCN[C@]31CS[C@@H]2c3c(OC(C)=O)c(C)c4c(c3[C@H](COC1=O)N1[C@@H]2[C@H]2c3c(cc(C)c(OC)c3O)C[C@@H]([C@@H]1O)N2C)OCO4 [lurbinectedin, Lurbinectedin]
cardiac toxicity concerns [1]: no cardiac toxicity concerns
Cmax at the effect compartment associated with 10 ms UB 90% CI of ΔQTcF ([2]; delayed effect model): 36.18 ng/mL
Cmax at the effect compartment associated with 20 ms UB 90% CI of ΔQTcF ([2]; delayed effect model): 61.94 ng/mL
dose corresponding to 10 ms UB 90% CI of ΔQTcF ([2]; delayed effect model): 3.8 mg/m^2
dose corresponding to 20 ms UB 90% CI of ΔQTcF ([2]; delayed effect model): 6.5 mg/m^2
fold increase over recommended dose Cmax at 10 ms threshold ([2]; delayed effect model): 1.21 fold
fold increase over recommended dose Cmax at 20 ms threshold ([2]; delayed effect model): 2.03 fold
Cmax associated with 10 ms UB 90% CI of ΔQTcF ([2]; direct effect model): 129.05 ng/mL
Cmax associated with 20 ms UB 90% CI of ΔQTcF ([2]; direct effect model): 241.25 ng/mL
dose corresponding to 10 ms UB 90% CI of ΔQTcF ([2]; direct effect model): 3.6 mg/m^2
dose corresponding to 20 ms UB 90% CI of ΔQTcF ([2]; direct effect model): 6.6 mg/m^2
Cmax (central compartment) ([2]; direct effect model, recommended dose): 116.62 ng/mL
Slope of C-ΔQTcF ([2]; final delayed effect (effect compartment) model): 0.289 L·ms/µg
Keo, equilibration rate constant ([2]; final delayed effect model): 0.298 h⁻¹
Slope of C-ΔQTcF ([2]; final direct model): 0.072 L·ms/µg
IC50 [3]: 8.8 µM
IC50 hERG [3]: 6.9 µg/mL (≈ 8.79 µM)
cardiovascular changes [4]: mild decreases in blood pressure and increased heart rate
effects on lead II ECG variables (PR, QT, QTcF, QTcV, QRS), ECG gross morphology, cardiac rhythm [4]: No effects were observed
observed lurbinectedin concentration, mean (Stdv) ([5]; Cycle 1, 0.92 h after start of infusion (Cmax)): 106.02 (54.52) µg/L
observed lurbinectedin concentration, mean (Stdv) ([5]; Cycle 1, 1.5 h after start of infusion): 40.01 (24.35) µg/L
observed lurbinectedin concentration, mean (Stdv) ([5]; Cycle 1, 2 h after start of infusion): 27.22 (14.05) µg/L
observed lurbinectedin concentration, mean (Stdv) ([5]; Cycle 1, 4 h after start of infusion): 17.86 (8.07) µg/L
observed lurbinectedin concentration, mean (Stdv) ([5]; Cycle 1, 25 h after start of infusion): 3.84 (1.87) µg/L
observed lurbinectedin concentration, mean (Stdv) ([5]; Cycle 1, 73 h after start of infusion): 1.53 (1.13) µg/L
observed lurbinectedin concentration, mean (Stdv) ([5]; Cycle 1, 169 h after start of infusion): 0.51 (0.45) µg/L
observed lurbinectedin concentration, mean (Stdv) ([5]; Cycle 2, 0.92 h after start of infusion (Cmax)): 136.60 (145.04) µg/L
observed lurbinectedin concentration, mean (Stdv) ([5]; Cycle 2, 2 h after start of infusion): 28.22 (16.84) µg/L
observed lurbinectedin concentration, mean (Stdv) ([5]; Cycle 2, 4 h after start of infusion): 18.82 (10.94) µg/L
observed lurbinectedin concentration, mean (Stdv) ([5]; Cycle 2, 169 h after start of infusion): 0.56 (0.57) µg/L
Tmax ([5]; cycle 1): 0.92 h
mean clearance (non-compartmental) ([5]; cycle 1, 39 patients): 11.8 L/h
mean volume of distribution (non-compartmental) ([5]; cycle 1, 39 patients): 347.7 L
Tmax ([5]; cycle 2): 4 h
in vitro activity [6]: low nanomolar range
